# The source made the active and inactive calls. The rule behind the calls is not given here.
# Assays:
# Assay type in all cases: functional
# Rattus norvegicus [1] = assay: Effect on LDH level in Wistar Rattus norvegicus (rat) serum at 30 mg/kg, po qd after 10 days (reference value: 249.89 +/- 13.26 U/I)
# Rattus norvegicus [2] = assay: Anti-inflammatory activity in Wistar Rattus norvegicus (rat) assessed as inhibition of carrageenan-induced paw edema at 30 mg/kg, po administered 30 min prior to carrageenan challenge measured at 60 min relative to untreated control
# Rattus norvegicus [3] = assay: Anti-inflammatory activity in Wistar Rattus norvegicus (rat) assessed as inhibition of carrageenan-induced paw edema at 30 mg/kg, po administered 30 min prior to carrageenan challenge measured at 120 min relative to untreated control
# Rattus norvegicus [4] = assay: Effect on gamma-glutamyl transferase level in Wistar Rattus norvegicus (rat) serum at 30 mg/kg, po qd after 10 days (reference value: 0.57 +/- 0.04 U/I)
# Rattus norvegicus [5] = assay: Effect on GST level in Wistar Rattus norvegicus (rat) liver measured CDNB conjugated per min per mg of protein at 30 mg/kg, po after 10 days (reference value: 0.86 +/- 0.08 mmol)
# Rattus norvegicus [6] = assay: Effect on GSH level in Wistar Rattus norvegicus (rat) liver measured per mg of protein at 30 mg/kg, po after 10 days (reference value: 1.84 +/- 0.092 mg)
# Rattus norvegicus [7] = assay: Effect on glutathione reductase level in Wistar Rattus norvegicus (rat) liver measured NADPH oxidized per min per mg of protein at 30 mg/kg, po after 10 days (reference value: 4.19 +/ 0.42 nmol)
# Rattus norvegicus [8] = assay: Effect on ALP level in Wistar Rattus norvegicus (rat) serum at 30 mg/kg, po qd after 10 days (reference value: 39.5 +/- 3.86 U/I)
# Rattus norvegicus [9] = assay: Effect on TBARS level in Wistar Rattus norvegicus (rat) serum at 30 mg/kg, po qd after 10 days (reference value: 0.82 +/- 0.073 nmol/ml)
# Rattus norvegicus [10] = assay: Anti-inflammatory activity in Wistar Rattus norvegicus (rat) assessed as inhibition of carrageenan-induced paw edema at 30 mg/kg, po administered 30 min prior to carrageenan challenge measured at 180 min relative to untreated control
# Rattus norvegicus [11] = assay: Effect on SGOT level in Wistar Rattus norvegicus (rat) at 30 mg/kg, po qd after 10 days (reference value: 145.50 +/- 13.86 U/I)
# Rattus norvegicus [12] = assay: Effect on glutathione peroxidase level in Wistar Rattus norvegicus (rat) liver measured GSH oxidized per min per mg of protein at 30 mg/kg, po after 10 days (reference value: 47.47 +/- 3.86 mmol)
# Rattus norvegicus [13] = assay: Anti-inflammatory activity in Wistar Rattus norvegicus (rat) assessed as inhibition of carrageenan-induced paw edema at 30 mg/kg, po administered 30 min prior to carrageenan challenge measured at 30 min post carrageenan challenge relative to untreated control
# Rattus norvegicus [14] = assay: Anti-inflammatory activity in Wistar Rattus norvegicus (rat) assessed as inhibition of carrageenan-induced paw edema at 30 mg/kg, po administered 30 min prior to carrageenan challenge measured at 90 min relative to untreated control
# Rattus norvegicus [15] = assay: Effect on SGPT level in Wistar Rattus norvegicus (rat) at 30 mg/kg, po qd after 10 days (reference value: 38.77 +/- 4.25 U/I)
# [16] = Antioxidant activity assessed as inhibition of linoleic acid peroxidation at 100 mg/l after 24 hr by spectrophotometric analysis
# [17] = Antioxidant activity assessed as reduction of Fe3+ to Fe2+ at 20 to 140 ug/ml after 30 min by spectrophotometric analysis
# Rattus norvegicus [18] = assay: Antipyretic activity in Wistar Rattus norvegicus (rat) assessed as decrease in Brewer's yeast solution-induced hyperthermia at 20 mg/kg, po measured after 2 hr (reference value: 37 +/- 1.7 degC)
# Rattus norvegicus [19] = assay: Antipyretic activity in Wistar Rattus norvegicus (rat) assessed as decrease in Brewer's yeast solution-induced hyperthermia at 20 mg/kg, po measured after 3 hr (reference value: 36.8 +/- 1.9 degC)
# Rattus norvegicus [20] = assay: Antipyretic activity in Wistar Rattus norvegicus (rat) assessed as decrease in Brewer's yeast solution-induced hyperthermia at 20 mg/kg, po measured after 1 hr (reference value: 37 +/- 3.55 degC)
# [21] = test system: Radical scavenging activity; assay: Antioxidant activity assessed as DPPH free radical scavenging activity at 0.06 mg/ml after 5 to 60 min by spectrophotometric analysis
compound,measurement,setting,value
O=C([O-])Cc1ccccc1Nc1c(Cl)cccc1Cl.[Na+] [DICLOFENAC SODIUM],Activity,Rattus norvegicus [1],320.69 U/L
same,inhibition in vivo at 30 mg/kg,Rattus norvegicus [2],82%
same,inhibition in vivo at 30 mg/kg,Rattus norvegicus [3],92.8%
same,Activity,Rattus norvegicus [4],1.37 U/L
same,Activity,Rattus norvegicus [5],0.63 mmol
same,Activity,Rattus norvegicus [6],0.79 mg
same,Activity,Rattus norvegicus [7],3.28 nmol
same,Activity,Rattus norvegicus [8],75.25 U/L
same,Activity,Rattus norvegicus [9],1.41 nmol/mL
same,inhibition in vivo at 30 mg/kg,Rattus norvegicus [10],100%
same,Activity,Rattus norvegicus [11],201.27 U/L
same,Activity,Rattus norvegicus [12],32.09 mmol
same,inhibition in vivo at 30 mg/kg,Rattus norvegicus [13],41.3%
same,inhibition in vivo at 30 mg/kg,Rattus norvegicus [14],86.3%
same,Activity,Rattus norvegicus [15],84.43 U/L
Cc1cc(C(C)(C)C)c(O)c(C(C)(C)C)c1,inhibition,[16],Active
same,Activity,[17],Active
CC(=O)Nc1ccc(O)cc1 [ACETAMINOPHEN],T,Rattus norvegicus [18],36.8 °C
same,T,Rattus norvegicus [19],36.4 °C
same,T,Rattus norvegicus [20],37 °C
Cc1c(C)c2c(c(C)c1O)CC[C@@](C)(CCC[C@H](C)CCC[C@H](C)CCCC(C)C)O2,inhibition,[16],Active
same,Activity,[17],Active
Cc1c(C)c2c(c(C)c1O)CCC(C)(C(=O)O)O2 (centres undefined),Activity,[21],Active
same,inhibition,[16],Active

# Reference: ChEMBL document CHEMBL3046756, “Synthesis, anti-inflammatory, and structure antioxidant activity relationship of novel 4-quinazoline” (Med Chem Res, 2013)
